In PubChem BioAssay AID216 (DTP/NCI, 2004):
Values joined by “and” are separate entries in the source; they are usually repeats but may differ in a detail not shown here. Equal values may be shown once. Inconclusive results and toxic doses are left out.

Tested on: BDF1 mice, P288 leukemia ip, survival T/C
Assay: NCI In Vivo Anticancer Drug Screen. Data for tumor model P288 Lymphocytic Leukemia (intraperitoneal) in B6D2F1 (BDF1) mice
Conditions: endpoint: survival time, mean or median, higher = longer survival
Protocol: The antitumor activity of compounds was measured in mice bearing transplantable tumors. Survival or tumor size were measured and the results are expressed as the measurement made in the treated group (T) divided by the measurement made in the vehicle treated control group (C). The tumor model used in this assay is P288 Lymphocytic Leukemia (intraperitoneal) in B6D2F1 (BDF1) mice

[1] = dose: 31.0 mg/kg/injection, schedule: Q01DX Z (sc), vehicle: steriod suspending solution
[2] = dose: 62.5 mg/kg/injection, schedule: Q01DX Z (sc), vehicle: steriod suspending solution
[3] = dose: 125.0 mg/kg/injection, schedule: Q01DX Z (sc), vehicle: steriod suspending solution
[4] = dose: 0.25 mg/kg/injection, schedule: Q01DX010 (ip), vehicle: saline
[5] = dose: 0.5 mg/kg/injection, schedule: Q01DX010 (ip), vehicle: saline
[6] = dose: 1.0 mg/kg/injection, schedule: Q01DX010 (ip), vehicle: saline
[7] = dose: 125.0 micrograms/kg/injection, schedule: Q01DX010 (ip), vehicle: saline
[8] = dose: 250.0 micrograms/kg/injection, schedule: Q01DX010 (ip), vehicle: saline
[9] = dose: 25.0 mg/kg/injection, schedule: Q01DX010 (ip), vehicle: saline
[10] = dose: 50.0 mg/kg/injection, schedule: Q01DX010 (ip), vehicle: saline
[11] = dose: 100.0 mg/kg/injection, schedule: Q01DX010 (ip), vehicle: saline
[12] = dose: 200.0 mg/kg/injection, schedule: Q01DX010 (ip), vehicle: saline

CC[C@H](c1ccc(O)cc1)[C@@H](CC)c1ccc(O)cc1
T/C (dose: 8.0 mg/kg/injection, schedule: Q01DX Z (sc), vehicle: steriod suspending solution): 90 % of control | T/C (dose: 16.0 mg/kg/injection, schedule: Q01DX Z (sc), vehicle: steriod suspending solution): 93 % of control | T/C [1]: 97 % of control | T/C [2]: 88 % of control and 98 % of control | T/C [3]: 90 % of control

CC(=O)[C@H]1CC[C@H]2[C@@H]3C[C@H](C)C4=CC(=O)CC[C@]4(C)[C@H]3C(=O)C[C@]12C
T/C (dose: 25.0 mg/kg/injection, schedule: Q01DX Z (sc), vehicle: steriod suspending solution): 100 % of control | T/C (dose: 50.0 mg/kg/injection, schedule: Q01DX Z (sc), vehicle: steriod suspending solution): 108 % of control | T/C (dose: 100.0 mg/kg/injection, schedule: Q01DX Z (sc), vehicle: steriod suspending solution): 114 % of control | T/C (dose: 200.0 mg/kg/injection, schedule: Q01DX Z (sc), vehicle: steriod suspending solution): 104 % of control and 105 % of control | T/C (dose: 400.0 mg/kg/injection, schedule: Q01DX Z (sc), vehicle: steriod suspending solution): 110 % of control | T/C (dose: 800.0 mg/kg/injection, schedule: Q01DX Z (sc), vehicle: steriod suspending solution): 100 % of control

COc1cc2c(c(OC)c1OC)-c1ccc(OC)c(=O)cc1[C@@H](NC(C)=O)CC2
T/C (dose: 0.12 mg/kg/injection, schedule: Q01DX Z (ip), vehicle: saline): 109 % of control

CC(=O)NC1=C(N2CC2)C(=O)C(NC(C)=O)=C(N2CC2)C1=O
T/C [4]: 105 % of control | T/C [5]: 166 % of control | T/C [6]: 222 % of control | T/C (dose: 2.0 mg/kg/injection, schedule: Q01DX010 (ip), vehicle: saline): 111 % of control | T/C [7]: 105 % of control | T/C [8]: 100 % of control | T/C (dose: 500.0 micrograms/kg/injection, schedule: Q01DX010 (ip), vehicle: saline): 100 % of control | T/C (dose: 1000.0 micrograms/kg/injection, schedule: Q01DX010 (ip), vehicle: saline): 122 % of control

CN(C)CC(=O)c1ccc(O)c(O)c1
T/C (dose: 8.0 mg/kg/injection, schedule: Q01DX Z (ip), vehicle: saline): 94 % of control | T/C (dose: 16.0 mg/kg/injection, schedule: Q01DX Z (ip), vehicle: saline): 105 % of control | T/C (dose: 500.0 mg/kg/injection, schedule: Q01DX Z (ip), vehicle: saline): 152 % of control | T/C (dose: 675.0 mg/kg/injection, schedule: Q01DX010 (ip), vehicle: saline): 150 % of control

C1CN1c1nc(N2CC2)nc(N2CC2)n1
T/C (dose: 0.13 mg/kg/injection, schedule: Q01DX010 (ip), vehicle: saline): 88 % of control | T/C [4]: 105 % of control and 88 % of control | T/C [5]: 111 % of control and 95 % of control | T/C [6]: 94 % of control

CS(=O)(=O)OCC(O)C(O)C(O)C(O)COS(C)(=O)=O (stereo not drawn)
T/C [9]: 100 % of control | T/C [10]: 114 % of control and 94 % of control | T/C [11]: 111 % of control and 100 % of control | T/C [12]: 105 % of control and 100 % of control | T/C (dose: 400.0 mg/kg/injection, schedule: Q01DX010 (ip), vehicle: saline): 114 % of control

O[C@H](CN1CC1)[C@@H](O)CN1CC1
T/C (dose: 8.0 micrograms/kg/injection, schedule: Q01DX Z (ip), vehicle: carboxymethylcellulose (CMC)): 113 % of control | T/C (dose: 16.0 micrograms/kg/injection, schedule: Q01DX Z (ip), vehicle: carboxymethylcellulose (CMC)): 112 % of control | T/C (dose: 31.0 micrograms/kg/injection, schedule: Q01DX Z (ip), vehicle: carboxymethylcellulose (CMC)): 118 % of control | T/C (dose: 31.3 micrograms/kg/injection, schedule: Q01DX010 (ip), vehicle: saline): 100 % of control | T/C (dose: 62.5 micrograms/kg/injection, schedule: Q01DX010 (ip), vehicle: saline): 106 % of control | T/C [7]: 112 % of control | T/C [8]: 150 % of control | T/C (dose: 250.0 micrograms/kg/injection, schedule: Q01DX Z (ip), vehicle: carboxymethylcellulose (CMC)): 170 % of control | T/C (dose: 500.0 micrograms/kg/injection, schedule: Q01DX Z (ip), vehicle: carboxymethylcellulose (CMC)): 172 % of control and 200 % of control

CCOC(=O)NP(=O)(N1CC1(C)C)N1CC1(C)C (stereo not drawn)
T/C (dose: 16.0 mg/kg/injection, schedule: Q01DX Z (ip), vehicle: carboxymethylcellulose (CMC)): 95 % of control | T/C (dose: 31.0 mg/kg/injection, schedule: Q01DX Z (ip), vehicle: carboxymethylcellulose (CMC)): 98 % of control | T/C (dose: 62.5 mg/kg/injection, schedule: Q01DX Z (ip), vehicle: carboxymethylcellulose (CMC)): 112 % of control | T/C (dose: 250.0 mg/kg/injection, schedule: Q01DX Z (ip), vehicle: carboxymethylcellulose (CMC)): 180 % of control | T/C (dose: 500.0 mg/kg/injection, schedule: Q01DX Z (ip), vehicle: carboxymethylcellulose (CMC)): 117 % of control

O=C1CCC(N2C(=O)c3ccccc3C2=O)C(=O)N1 (stereo not drawn)
T/C (dose: 18.75 mg/kg/injection, schedule: Q01DX Z (ip), vehicle: carboxymethylcellulose (CMC)): 91 % of control | T/C (dose: 37.5 mg/kg/injection, schedule: Q01DX Z (ip), vehicle: carboxymethylcellulose (CMC)): 94 % of control | T/C (dose: 75.0 mg/kg/injection, schedule: Q01DX Z (ip), vehicle: carboxymethylcellulose (CMC)): 97 % of control | T/C (dose: 150.0 mg/kg/injection, schedule: Q01DX Z (ip), vehicle: carboxymethylcellulose (CMC)): 101 % of control and 88 % of control | T/C (dose: 300.0 mg/kg/injection, schedule: Q01DX Z (ip), vehicle: carboxymethylcellulose (CMC)): 94 % of control | T/C (dose: 600.0 mg/kg/injection, schedule: Q01DX Z (ip), vehicle: carboxymethylcellulose (CMC)): 87 % of control

Nc1nc(N)c2nc(CNc3ccc(C(=O)NC(CCC(=O)O)C(=O)O)cc3)cnc2n1 (stereo not drawn)
T/C (dose: 0.05 mg/kg/injection, schedule: Q01DX010 (ip), vehicle: other): 100 % of control | T/C (dose: 0.1 mg/kg/injection, schedule: Q01DX010 (ip), vehicle: other): 116 % of control | T/C (dose: 0.2 mg/kg/injection, schedule: Q01DX010 (ip), vehicle: other): 177 % of control | T/C (dose: 0.4 mg/kg/injection, schedule: Q01DX010 (ip), vehicle: other): 194 % of control

c1ccc(CCSc2ncnc3nc[nH]c23)cc1
T/C (dose: 62.5 mg/kg/injection, schedule: Q01DX010 (ip), vehicle: saline): 100 % of control | T/C (dose: 125.0 mg/kg/injection, schedule: Q01DX010 (ip), vehicle: saline): 100 % of control | T/C (dose: 250.0 mg/kg/injection, schedule: Q01DX010 (ip), vehicle: saline): 122 % of control and 100 % of control | T/C (dose: 500.0 mg/kg/injection, schedule: Q01DX010 (ip), vehicle: saline): 105 % of control and 122 % of control

CN(C)/N=N/c1nc[nH]c1C(N)=O
T/C [9]: 100 % of control | T/C [10]: 88 % of control | T/C [11]: 94 % of control and 100 % of control | T/C [12]: 100 % of control

CCOC(=O)c1[nH]c2ccccc2c1CN(CCCl)CCCl
T/C (dose: 20.0 mg/kg/injection, schedule: Q01DX010 (ip), vehicle: saline): 95 % of control | T/C (dose: 40.0 mg/kg/injection, schedule: Q01DX010 (ip), vehicle: saline): 100 % of control

CC[C@@H](c1ccc(O)cc1)[C@@H](CC)c1ccc(O)cc1
T/C [1]: 98 % of control | T/C [2]: 98 % of control | T/C [3]: 115 % of control and 97 % of control and 100 % of control | T/C (dose: 250.0 mg/kg/injection, schedule: Q01DX Z (sc), vehicle: steriod suspending solution): 93 % of control and 98 % of control | T/C (dose: 500.0 mg/kg/injection, schedule: Q01DX Z (sc), vehicle: steriod suspending solution): 107 % of control and 95 % of control | T/C (dose: 1000.0 mg/kg/injection, schedule: Q01DX Z (sc), vehicle: steriod suspending solution): 93 % of control

Cc1n[nH]c(=O)[nH]c1=O
T/C (dose: 50.0 mg/kg/injection, schedule: Q01DX Z (ip), vehicle: other): 104 % of control | T/C (dose: 100.0 mg/kg/injection, schedule: Q01DX Z (ip), vehicle: other): 101 % of control | T/C (dose: 200.0 mg/kg/injection, schedule: Q01DX Z (ip), vehicle: other): 101 % of control and 110 % of control | T/C (dose: 400.0 mg/kg/injection, schedule: Q01DX Z (ip), vehicle: other): 101 % of control and 110 % of control | T/C (dose: 800.0 mg/kg/injection, schedule: Q01DX Z (ip), vehicle: other): 97 % of control
